Laboratory results reported in patent US9926324B2, “Heteroaromatic compounds as PI3 kinase modulators and methods of use” (Calitor Sciences, LLC, priority 2012, dated 2018).

How the values were obtained:
PI3K p110α/p85α (h) = biological target: T1, PI3K p110α/p85α (h) (Homo sapiens, UniProt P42336); assay: PI3K p110α/p85α (h) non-radioactive HTRF assay; type: biochemical
T1 construct: purchased Millipore UK Ltd (assay service)
Method: (§1) PI3K p110α/p85α (h) is incubated in assay buffer containing 10 μM phosphatidylinositol 4,5-bisphosphate and MgATP (concentration as required). The reaction is initiated by the addition of the ATP solution. After incubation for 30 minutes at room temperature, the reaction is stopped by the addition of stop solution containing EDTA and biotinylated phosphatidylinositol-3,4,5-trisphosphate. Finally, detection buffer is added, which contains europium-labelled anti-GST monoclonal antibody, GST-tagged GRP1 PH domain and streptavidin allophycocyanin. The plate is then read in timeresolved fluorescence mode and the homogenous time-resolved fluorescence (HTRF) signal is determined according to the formula HTRF=10000×(Em665 nm/Em620 nm).
(§2) The kinase assays described herein were performed at Millipore UK Ltd, Dundee Technology Park, Dundee DD2 1SW, UK.

PI3K (p120γ) (h) = biological target: T2, PI3K (p120γ) (h) (Homo sapiens, UniProt P48736); assay: PI3K p120γ (h) non-radioactive HTRF assay; type: biochemical
T2 construct: purchased Millipore UK Ltd (assay service)
Method: as §1, with “(p120γ)” for “p110α/p85α”, “phosphatidylinositol-4,5-bisphosphate” for “phosphatidylinositol 4,5-bisphosphate”, “MgATP mix.” for “ATP solution.”, “streptavidin-allophycocyanin.” for “streptavidin allophycocyanin.”
as §2

U87MG glioblastoma cells = assay: Tumor xenograft model (U87MG), tumor growth inhibition; type: in vivo, athymic nude mice
Method: The efficacy of compounds disclosed herein was evaluated in a standard murine model of tumorigenesis. Human tumor cells (U87MG glioblastoma cells from ATCC) were expended in culture, harvested, and injected subcutaneously onto the rear flank of 6-7 week old female athymic nude mice (BALB/cA nu/nu, Hunan SLAC Laboratory Animal, Co.) (n=6-10 for vehicle group and for each dosing group). When tumors reached a volume of 100-250 mm^3, animals were randomly divided into vehicle control (for example, 5% DMSO+70% Captisol® (30%), 7% HCl (pH1), 18% Captisol® (30%); or 7% DMSO, 7% HCl (pH1), 70% Captisol® (30%), 16% Captisol® (30%), or the like) and compound groups. Subsequent administration of compound by oral gavage begins anywhere from day 0 to day 15 post tumor cell challenge and generally continues with once a day for the duration of the experiment.
Progression of tumor growth is assessed by tumor volumes and recorded as a function of time. The long (L) and short (W) axes of the subcutaneous tumors were measured with calipers twice weekly, and the tumor volume (TV) calculated as (L×W^2)/2). TGI was calculated from the difference between the median tumor volumes of vehicle-treated and drug-treated mice, expressed as a percentage of the median tumor volume of the vehicle-treated control group, by the following relation:
Initial statistical analysis is done by repeated measures analysis of variance (RMANOVA), followed by Scheffe psot hoc testing for multiple comparisons. Vehicle alone (5% DMSO+70% Captisol® (30%), 7% HCl (pH1), 18% Captisol® (30%); or 7% DMSO, 7% HCl (pH1), 70% Captisol® (30%), 16% Captisol® (30%), or the like) is the negative control.

[1] = Pharmacokinetic profiles in mice after intravenous and oral administration; type: in vivo; conditions: Mouse; for F: oral dose generally 5 or 10 mg/kg; for AUC(0-t) / half-life / Vd: plasma; for Vd: read-out: Vss
Method: (§3) The compounds disclosed herein are assessed in pharmacokinetic studies in mice, rats, dogs or monkeys. The compounds are administered as a water solution, 2% HPMC+1% TWEEN® 80 in water solution, 5% DMSO+5% solutol in saline, 4% MC suspension or capsule. For the intravenous administration, the animals are generally given at 1 or 2 mg/kg dose. For the oral (p.o.) dosing, mice and rats are generally given 5 or 10 mg/kg dose, and dogs and monkeys are generally given 10 mg/kg dose. The blood samples (0.3 mL) are drawn at 0.25, 0.5, 1.0, 2.0, 3.0, 4.0, 6.0, 8.0, 12 and 24 h time points or 0.083, 0.25, 0.5, 1.0, 2.0, 4.0, 6.0, 8.0 and 24 h time points and centrifuged at 3,000 or 4000 rpm for 2 to 10 min. The plasma solutions are collected, stored at −20° C. or −70° C. until analyzed by LC/MS/MS as described above.

[2] = Pharmacokinetic profiles in monkeys after intravenous and oral administration; type: in vivo; conditions: Monkey; for F: iv dose 1 mg/kg, oral dose generally 10 mg/kg; for Cl/F / AUC(0-t) / half-life / Vd: iv dosing 1 mg/kg; for AUC(0-t) / half-life / Vd: plasma; for Vd: read-out: Vss
Method: as §3

T2 sequence (P48736 whole entry): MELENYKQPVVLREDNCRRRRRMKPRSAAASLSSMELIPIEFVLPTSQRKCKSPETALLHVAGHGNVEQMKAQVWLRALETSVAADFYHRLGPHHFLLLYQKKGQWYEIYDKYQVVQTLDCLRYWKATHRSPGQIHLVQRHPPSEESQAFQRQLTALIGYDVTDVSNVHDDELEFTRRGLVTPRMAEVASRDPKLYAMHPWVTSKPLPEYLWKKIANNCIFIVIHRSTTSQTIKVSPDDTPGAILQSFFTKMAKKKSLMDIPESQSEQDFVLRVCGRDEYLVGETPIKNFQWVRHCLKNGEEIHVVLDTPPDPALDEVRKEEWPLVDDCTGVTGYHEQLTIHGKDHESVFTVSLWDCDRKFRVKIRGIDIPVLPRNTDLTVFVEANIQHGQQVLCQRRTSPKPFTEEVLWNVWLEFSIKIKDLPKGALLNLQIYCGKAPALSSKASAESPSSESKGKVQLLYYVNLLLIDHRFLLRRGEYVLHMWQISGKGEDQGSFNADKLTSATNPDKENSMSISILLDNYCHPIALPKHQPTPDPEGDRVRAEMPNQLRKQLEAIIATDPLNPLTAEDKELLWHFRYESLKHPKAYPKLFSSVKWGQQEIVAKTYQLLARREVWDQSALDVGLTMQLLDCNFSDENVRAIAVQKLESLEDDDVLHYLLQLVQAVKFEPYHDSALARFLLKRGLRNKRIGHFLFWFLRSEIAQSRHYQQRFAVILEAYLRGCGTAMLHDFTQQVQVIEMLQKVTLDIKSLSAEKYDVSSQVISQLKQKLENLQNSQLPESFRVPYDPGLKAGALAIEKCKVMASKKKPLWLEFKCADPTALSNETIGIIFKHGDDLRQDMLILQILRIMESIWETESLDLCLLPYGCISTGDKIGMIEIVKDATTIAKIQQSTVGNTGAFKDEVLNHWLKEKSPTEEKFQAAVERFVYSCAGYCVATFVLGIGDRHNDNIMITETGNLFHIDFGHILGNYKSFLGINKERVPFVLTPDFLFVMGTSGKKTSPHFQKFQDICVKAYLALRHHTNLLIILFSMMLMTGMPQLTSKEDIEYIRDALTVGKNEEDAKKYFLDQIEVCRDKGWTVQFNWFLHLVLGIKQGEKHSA
T1 sequence (P42336 whole entry): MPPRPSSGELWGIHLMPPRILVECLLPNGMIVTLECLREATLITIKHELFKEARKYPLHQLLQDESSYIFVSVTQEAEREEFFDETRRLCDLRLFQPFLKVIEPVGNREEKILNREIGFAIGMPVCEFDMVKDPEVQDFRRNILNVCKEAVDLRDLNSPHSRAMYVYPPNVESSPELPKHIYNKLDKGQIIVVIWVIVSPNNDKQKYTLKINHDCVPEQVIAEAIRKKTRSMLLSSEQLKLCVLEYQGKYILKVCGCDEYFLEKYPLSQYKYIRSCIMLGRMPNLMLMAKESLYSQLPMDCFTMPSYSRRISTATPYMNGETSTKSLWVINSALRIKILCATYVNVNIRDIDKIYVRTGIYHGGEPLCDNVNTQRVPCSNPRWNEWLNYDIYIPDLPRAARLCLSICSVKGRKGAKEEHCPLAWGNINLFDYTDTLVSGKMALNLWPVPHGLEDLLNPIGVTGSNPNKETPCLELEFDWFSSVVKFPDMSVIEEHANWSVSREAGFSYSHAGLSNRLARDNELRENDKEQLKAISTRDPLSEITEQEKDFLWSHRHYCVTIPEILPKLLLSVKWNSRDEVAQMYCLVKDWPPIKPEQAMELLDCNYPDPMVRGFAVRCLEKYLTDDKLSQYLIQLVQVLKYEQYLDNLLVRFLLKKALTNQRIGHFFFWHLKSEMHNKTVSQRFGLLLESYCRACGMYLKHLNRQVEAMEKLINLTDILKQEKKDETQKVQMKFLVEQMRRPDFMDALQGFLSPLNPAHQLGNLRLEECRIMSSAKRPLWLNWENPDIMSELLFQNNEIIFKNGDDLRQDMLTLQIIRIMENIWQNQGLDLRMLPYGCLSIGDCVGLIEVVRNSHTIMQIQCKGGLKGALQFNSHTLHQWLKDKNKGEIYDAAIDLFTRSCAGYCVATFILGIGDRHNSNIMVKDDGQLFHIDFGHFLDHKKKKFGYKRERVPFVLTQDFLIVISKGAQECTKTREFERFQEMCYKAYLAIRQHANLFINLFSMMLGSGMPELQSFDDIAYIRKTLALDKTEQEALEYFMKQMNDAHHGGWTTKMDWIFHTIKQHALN
T1 sequence (P27986 whole entry partner): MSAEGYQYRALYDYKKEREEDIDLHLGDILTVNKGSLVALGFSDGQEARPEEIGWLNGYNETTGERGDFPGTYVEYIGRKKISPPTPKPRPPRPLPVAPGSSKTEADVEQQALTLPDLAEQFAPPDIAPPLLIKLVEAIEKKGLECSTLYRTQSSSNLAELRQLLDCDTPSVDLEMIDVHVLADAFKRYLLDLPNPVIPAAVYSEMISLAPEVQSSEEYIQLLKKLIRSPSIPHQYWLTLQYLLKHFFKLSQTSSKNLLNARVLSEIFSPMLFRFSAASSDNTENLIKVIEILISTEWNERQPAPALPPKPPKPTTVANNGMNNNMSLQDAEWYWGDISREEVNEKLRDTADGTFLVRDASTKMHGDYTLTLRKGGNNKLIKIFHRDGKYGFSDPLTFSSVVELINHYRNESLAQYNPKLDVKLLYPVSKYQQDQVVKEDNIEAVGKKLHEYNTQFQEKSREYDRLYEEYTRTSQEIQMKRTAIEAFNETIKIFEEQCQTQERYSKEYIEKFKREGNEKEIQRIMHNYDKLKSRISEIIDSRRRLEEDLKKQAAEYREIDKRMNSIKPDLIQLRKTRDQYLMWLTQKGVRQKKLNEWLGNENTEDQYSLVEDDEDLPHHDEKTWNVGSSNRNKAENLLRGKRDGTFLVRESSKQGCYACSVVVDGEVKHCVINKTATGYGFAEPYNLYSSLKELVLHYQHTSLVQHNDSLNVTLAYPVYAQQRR

IC50 (PI3K p110α/p85α (h)) [nM]	IC50 (PI3K (p120γ) (h)) [nM]	F ([1]; iv dose 2 mg/kg) [%]	Cl/F ([1]; iv dosing 2 mg/kg) [mL/min/kg]	AUC(0-t) ([1]; iv dosing 2 mg/kg) [ng·h/mL]	half-life ([1]; iv dosing 2 mg/kg) [h]	Vd ([1]; iv dosing 2 mg/kg) [L/kg]	F [2] [%]	Cl/F [2] [mL/min/kg]	AUC(0-t) [2] [ng·h/mL]	half-life [2] [h]	Vd [2] [L/kg]	Compound	TGI % U87MG (U87MG glioblastoma cells; 3 mg/kg oral gavage, 12 days) [%]	TGI % U87MG (U87MG glioblastoma cells; 10 mg/kg oral gavage, 12 days) [%]	other results
2	5											COc1ncc(-c2ccc3ncc(C#CC(C)O)n3c2)cc1NS(=O)(=O)c1ccc(F)cc1F (stereo not drawn) [Ex. 16, 2,4-difluoro N (5 (3 (3 hydroxybut-1-yn-1-yl)imidazo[1,2-a]pyridin-6-yl)-2-methoxypyridin-3-yl)benzenesulfonamide]	14	43	
2		118.7	6.17	5330	4.02	0.57	27.3	7.5	2370	3.59	0.39	COc1ncc(-c2ccc3ncc(C#CCO)n3n2)cc1NS(=O)(=O)c1ccc(F)cc1F [Ex. 9, 2,4-difluoro-N-(5-(3-(3-hydroxyprop-1-yn-1-yl)imidazo[1,2-b]pyridazin-6-yl)-2-methoxypyridin-3-yl)benzenesulfonamide]	26	62	TGI % U87MG (U87MG glioblastoma cells; 1 mg/kg oral gavage, 12 days): 23%
2	37						55.4	5.33	3200	5.89	0.76	COc1ncc(-c2ccc3ncc(C#CCO)n3c2)cc1NS(=O)(=O)c1ccc(F)cc1F [Ex. 15, 2,4-difluoro-N-(5-(3-(3-hydroxyprop-1-yn-1-yl)imidazo[1,2-a]pyridin-6-yl)-2-methoxypyridin-3-yl)benzenesulfonamide]	28	51	F ([1]; iv dose 1 mg/kg): 116.9%; AUC(0-t) ([1]; iv dosing 1 mg/kg): 20000 ng·h/mL; half-life ([1]; iv dosing 1 mg/kg): 2.83 h
2	4	72.6	0.33	96100	5.25	0.14	69.8	3.67	4640	6.05	0.64	COc1ncc(-c2ccc3ncc(C#N)n3n2)cc1NS(=O)(=O)c1ccc(F)cc1F [Ex. 24, N-(5-(3-cyanoimidazo[1,2-b]pyridazin-6-yl)-2-methoxypyridin-3-yl)-2,4-difluorobenzenesulfonamide]			TGI % U87MG (U87MG glioblastoma cells; 0.3 mg/kg oral gavage, 9 days): 53%; TGI % U87MG (U87MG glioblastoma cells; 1 mg/kg oral gavage, 9 days): 84%; TGI % U87MG (U87MG glioblastoma cells; 3 mg/kg oral gavage, 9 days): 108%
